Measurements from the NIST ThermoML archive (doi:10.1021/je700671t).
Numbers after ± are expanded uncertainties.

Assay: xn = mol fraction of the nth substance listed
Conditions: 101 kPa, Liquid; for viscosity: Capillary tube (Ostwald / Ubbelohde) method

CN(C)C=O [dimethylformamide] + O
Conditions	mass density [kg/m3]	viscosity [mPa·s]
323.15 K, x1 = 0.02	986 ± 0.38	0.648 ± 0.019
323.15 K, x1 = 0.04	984.49 ± 0.31	0.729 ± 0.019
323.15 K, x1 = 0.06	983.26 ± 0.28	0.812 ± 0.019
323.15 K, x1 = 0.08	982.19 ± 0.26	0.892 ± 0.018
323.15 K, x1 = 0.1	981.17 ± 0.26	0.965 ± 0.022
323.15 K, x1 = 0.2	975.89 ± 0.3	1.228 ± 0.012
323.15 K, x1 = 0.3	968.99 ± 0.35	1.3 ± 0.011
323.15 K, x1 = 0.398	960.81 ± 0.38	1.228 ± 0.011
323.15 K, x1 = 0.498	952.92 ± 0.38	1.087 ± 0.012
323.15 K, x1 = 0.599	945.11 ± 0.38	0.961 ± 0.011
323.15 K, x1 = 0.697	938.03 ± 0.37	0.831 ± 0.011
323.15 K, x1 = 0.798	931.73 ± 0.35	0.74 ± 0.01
323.15 K, x1 = 1	920.71 ± 0.31	0.617 ± 0.009
328.15 K, x1 = 0.02	983.51 ± 0.43	–
328.15 K, x1 = 0.04	981.71 ± 0.36	–
328.15 K, x1 = 0.06	980.24 ± 0.32	–
328.15 K, x1 = 0.08	978.94 ± 0.3	–
328.15 K, x1 = 0.1	977.71 ± 0.3	–
328.15 K, x1 = 0.2	971.68 ± 0.32	–
328.15 K, x1 = 0.3	964.38 ± 0.37	–
328.15 K, x1 = 0.398	956.04 ± 0.39	–
328.15 K, x1 = 0.498	948.09 ± 0.39	–
328.15 K, x1 = 0.599	940.27 ± 0.39	–
328.15 K, x1 = 0.697	933.2 ± 0.37	–
328.15 K, x1 = 0.798	926.91 ± 0.36	–
328.15 K, x1 = 1	915.92 ± 0.32	–
333.15 K, x1 = 0.02	980.84 ± 0.46	0.548 ± 0.016
333.15 K, x1 = 0.04	978.81 ± 0.41	0.613 ± 0.015
333.15 K, x1 = 0.06	977.1 ± 0.36	0.675 ± 0.015
333.15 K, x1 = 0.08	975.59 ± 0.34	0.736 ± 0.015
333.15 K, x1 = 0.1	974.16 ± 0.34	0.792 ± 0.017
333.15 K, x1 = 0.2	967.4 ± 0.34	0.992 ± 0.011
333.15 K, x1 = 0.3	959.73 ± 0.38	1.046 ± 0.01
333.15 K, x1 = 0.398	951.22 ± 0.4	1.001 ± 0.01
333.15 K, x1 = 0.498	943.22 ± 0.39	0.905 ± 0.01
333.15 K, x1 = 0.599	935.4 ± 0.39	0.81 ± 0.01
333.15 K, x1 = 0.697	928.34 ± 0.38	0.722 ± 0.01
333.15 K, x1 = 0.798	922.08 ± 0.36	0.654 ± 0.009
333.15 K, x1 = 1	911.13 ± 0.32	0.559 ± 0.009
338.15 K, x1 = 0.02	978.04 ± 0.5	–
338.15 K, x1 = 0.04	975.81 ± 0.45	–
338.15 K, x1 = 0.06	973.86 ± 0.4	–
338.15 K, x1 = 0.08	972.14 ± 0.38	–
338.15 K, x1 = 0.1	970.51 ± 0.37	–
338.15 K, x1 = 0.2	963.07 ± 0.36	–
338.15 K, x1 = 0.3	955.03 ± 0.39	–
338.15 K, x1 = 0.398	946.36 ± 0.4	–
338.15 K, x1 = 0.498	938.32 ± 0.4	–
338.15 K, x1 = 0.599	930.49 ± 0.39	–
338.15 K, x1 = 0.697	923.46 ± 0.38	–
338.15 K, x1 = 0.798	917.22 ± 0.37	–
338.15 K, x1 = 1	906.32 ± 0.33	–
343.15 K, x1 = 0.02	975.12 ± 0.54	0.474 ± 0.014
343.15 K, x1 = 0.04	972.66 ± 0.49	0.526 ± 0.013
343.15 K, x1 = 0.06	970.5 ± 0.44	0.575 ± 0.013
343.15 K, x1 = 0.08	968.59 ± 0.41	0.624 ± 0.013
343.15 K, x1 = 0.1	966.78 ± 0.41	0.666 ± 0.014
343.15 K, x1 = 0.2	958.67 ± 0.38	0.821 ± 0.01
343.15 K, x1 = 0.3	950.29 ± 0.41	0.866 ± 0.009
343.15 K, x1 = 0.398	941.46 ± 0.41	0.837 ± 0.01
343.15 K, x1 = 0.498	933.38 ± 0.4	0.764 ± 0.01
343.15 K, x1 = 0.599	925.56 ± 0.4	0.701 ± 0.009
343.15 K, x1 = 0.697	918.55 ± 0.39	0.636 ± 0.009
343.15 K, x1 = 0.798	912.34 ± 0.37	0.583 ± 0.009
343.15 K, x1 = 1	901.51 ± 0.34	0.51 ± 0.009
348.15 K, x1 = 0.02	972.14 ± 0.57	–
348.15 K, x1 = 0.04	969.42 ± 0.53	–
348.15 K, x1 = 0.06	967.1 ± 0.48	–
348.15 K, x1 = 0.08	964.94 ± 0.45	–
348.15 K, x1 = 0.1	962.96 ± 0.44	–
348.15 K, x1 = 0.2	954.21 ± 0.4	–
348.15 K, x1 = 0.3	945.49 ± 0.42	–
348.15 K, x1 = 0.398	936.52 ± 0.42	–
348.15 K, x1 = 0.498	928.4 ± 0.41	–
348.15 K, x1 = 0.599	920.59 ± 0.4	–
348.15 K, x1 = 0.697	913.61 ± 0.39	–
348.15 K, x1 = 0.798	907.45 ± 0.38	–
348.15 K, x1 = 1	896.69 ± 0.34	–
353.15 K, x1 = 0.02	968.96 ± 0.6	0.417 ± 0.012
353.15 K, x1 = 0.04	966.06 ± 0.57	0.459 ± 0.012
353.15 K, x1 = 0.06	963.53 ± 0.52	0.499 ± 0.012
353.15 K, x1 = 0.08	961.2 ± 0.49	0.539 ± 0.011
353.15 K, x1 = 0.1	959.05 ± 0.47	0.572 ± 0.011
353.15 K, x1 = 0.2	949.69 ± 0.42	0.694 ± 0.01
353.15 K, x1 = 0.3	940.64 ± 0.43	0.727 ± 0.009
353.15 K, x1 = 0.398	931.54 ± 0.43	0.707 ± 0.009
353.15 K, x1 = 0.498	923.39 ± 0.41	0.659 ± 0.009
353.15 K, x1 = 0.599	915.59 ± 0.41	0.614 ± 0.009
353.15 K, x1 = 0.697	908.64 ± 0.4	0.563 ± 0.009
353.15 K, x1 = 0.798	902.52 ± 0.38	0.525 ± 0.009
353.15 K, x1 = 1	891.86 ± 0.35	0.47 ± 0.009
